The experiment concerns TNF-α induced IL-6. As to the kind of experiment: TNF-α-induced IL-6 production determined by IL-6 ELISA. The experiment is classed as cell-based. The following applies: Homo sapiens, 24 h, class = % of control IL6 production. The procedure:
Human aortic endothelial cells (HAEC, Clonetics) were cultured according to manufacturer in growth medium (Clonetics): basal medium containing human epidermal growth factor, hydrocortisone, vascular endothelial growth factor, heparin binding growth factor-B, long R3-insulin-like growth factor-1, ascorbic acid, gentamicin/amphotericin and 5% FBS. These cell were allowed to reach at least 90% confluency before subjected to experimental treatments. […] Tumor necrosis factor α was from R&D Systems.
All treatments, compound-added and controls were carried out in serum free media containing 0.2% albumin. Media from all conditions were collected and used for IL-6 ELISA.
IL-6 ELISA was carried out using human IL-6 DuoSet ELISA development kit as described by manufacturer (R&D Systems). Mouse anti-human Il-6 was used as the capture antibody (2 ug/ml) and biotinylated goat anti-human IL-6 (200 ng/ml) was used as the detection antibody. Culture media were incubated with capture antibody (in 96 well) for 2 h at room temperature. Wells were washed three times with wash buffer (0.05% tween-20 in phosphate buffered saline (PBS) pH 7.4) followed by incubation with detection antibody for 2 h at room temperature. Following three washes wells were incubated with Streptavidin-HRP for 20 min. Color development was read at 450 nm in a Microplate reader.
On the technique in general: An ELISA detects its analyte on a solid surface through an enzyme-linked reagent.

Where [1] appears, read: Table 5, first part, read-out: Inhibition of TNF-induced IL6 production.
Setting [2] is: Table 5, second part, column 1, read-out: Inhibition of TNF-induced IL6, production.

Among the data in US7332489B2, “Methods and compositions of novel triazine compounds” (Reddy US Therapeutics, Inc., priority 2003, dated 2008) are activity values, retold here.

Where two headings read alike, the source gives them in different places.

On to `CCN1CCCC1CNc1nc(NCc2ccccc2)nc(Nc2ccc(OC)c(F)c2)n1` (stereo not drawn) [Compound 53, N^2-benzyl-N^4-[(1-ethyl-2-pyrrolidinyl)methyl]-N^6-(3-fluoro-4-methoxyphenyl)-1,3,5-triazine-2,4,6-triamine], for which the activity at 10 µM under setting [1] lay in the range of 0 to 25% and the activity at 10 µM under setting [2] was in the range of 25 to 50%. In the case of `CCN1CCCC1CNc1nc(Nc2ccc(OC)c(F)c2)nc(NC2CCCCC2)n1` (stereo not drawn) [Compound 55, N^2-cyclohexyl-N^4-[(1-ethyl-2-pyrrolidinyl)methyl]-N^6-(3-fluoro-4-methoxyphenyl)-1,3,5-triazine-2,4,6-triamine], the activity at 10 µM under setting [1] was in the range of 0 to 25%. With `CCN1CCCC1CNc1nc(Nc2ccc(OC)c(F)c2)nc(NC2CCCC2)n1` (stereo not drawn) [Compound 56, N^2-cyclopentyl-N^4-[(1-ethyl-2-pyrrolidinyl)methyl]-N^6-(3-fluoro-4-methoxyphenyl)-1,3,5-triazine-2,4,6-triamine], under setting [1], the activity at 10 µM lay within 0 to 25%. For the compound `CCN1CCCC1CNc1nc(Nc2ccc(OC)c(F)c2)nc(N2CCCC2)n1` (stereo not drawn) [Compound 57, N^2-[(1-ethyl-2-pyrrolidinyl)methyl]-N^4-(3-fluoro-4-methoxyphenyl)-6-(1-pyrrolidinyl)-1,3,5-triazine-2,4-diamine], the activity at 10 µM was in the range of 0 to 25% under setting [1] and 25 to 50% under setting [2]. Consider `CCN1CCCC1CNc1nc(Nc2ccc(OC)c(F)c2)nc(N2CCCCCC2)n1` (stereo not drawn) [Compound 58, N^2-[(1-ethyl-2-pyrrolidinyl)methyl]-N^4-(3-fluoro-4-methoxyphenyl)-N^6-hexahydro-1H-azepin-1-yl-1,3,5-triazine-2,4-diamine], for which the activity at 10 µM under setting [1] is 0 to 25% and the activity at 10 µM under setting [2] is 25 to 50%. `CCN1CCCC1CNc1nc(Nc2ccc(OC)c(F)c2)nc(NC2CCC(C)CC2)n1` (stereo not drawn) [Compound 60, N^2-[(1-ethyl-2-pyrrolidinyl)methyl]-N^4-(3-fluoro-4-methoxyphenyl)-N^6-(4-methylcyclohexyl)-1,3,5-triazine-2,4,6-triamine]: the activity at 10 µM under setting [1] is 0 to 25%. With `CCN1CCCC1CNc1nc(Nc2ccc(OC)c(F)c2)nc(N2CCN(C)CC2)n1` (stereo not drawn) [Compound 62, N^2-[(1-ethyl-2-pyrrolidinyl)methyl]-N^4-(3-fluoro-4-methoxyphenyl)-6-(4-methyl-1-piperazinyl)-1,3,5-triazine-2,4-diamine], under setting [2], the activity at 10 µM was in the range of 25 to 50%. Take `CCN1CCCC1CNc1nc(Nc2ccc(OC)c(F)c2)nc(N2CCN(C(C)=O)CC2)n1` (stereo not drawn) [Compound 63, 6-(4-acetyl-1-piperazinyl)-N^2-[(1-ethyl-2-pyrrolidinyl)methyl]-N^4-(3-fluoro-4-methoxyphenyl)-1,3,5-triazine-2,4-diamine]: the activity at 10 µM under setting [1] is 25 to 50%. `CCOC(=O)N1CCN(c2nc(NCC3CCCN3CC)nc(Nc3ccc(OC)c(F)c3)n2)CC1` (stereo not drawn) [Compound 64, Ethyl 4-{4-{[(1-ethyl-2-pyrrolidinyl)methyl]amino}-N^6-[(3-fluoro-4-methoxyphenyl)amino]-1,3,5-triazin-2-yl}-1-piperazinecarboxylate]: the activity at 10 µM under setting [1] was in the range of 25 to 50%. On to `CCN1CCCC1CNc1nc(NCC2CCCCC2)nc(Nc2ccc(OC)c(F)c2)n1` (stereo not drawn) [Compound 65, N^2-(cyclohexylmethyl)-N^4-[(1-ethyl-2-pyrrolidinyl)methyl]-N^6-(3-fluoro-4-methoxyphenyl)-1,3,5-triazine-2,4,6-triamine], for which the activity at 10 µM runs as follows: under setting [1], 0 to 25%; under setting [2], 25 to 50%.

In the case of `CCN1CCCC1CNc1nc(NCc2ccco2)nc(Nc2ccc(OC)c(F)c2)n1` (stereo not drawn) [Compound 66, N^2-[(1-ethyl-2-pyrrolidinyl)methyl]-N^4-(3-fluoro-4-methoxyphenyl)-N^6-(2-furylmethyl)-1,3,5-triazine-2,4,6-triamine], the activity at 10 µM lay within 0 to 25% under setting [1] and 0 to 25% under setting [2].

Turning to `CCN1CCCC1CNc1nc(NCC(F)(F)F)nc(Nc2ccc(OC)c(F)c2)n1` (stereo not drawn) [Compound 67, N^2-[(1-ethyl-2-pyrrolidinyl)methyl]-N^4-(3-fluoro-4-methoxyphenyl)-N^6-(2,2,2-trifluoroethyl)-1,3,5-triazine-2,4,6-triamine], the activity at 10 µM under setting [2] lay within 25 to 50%. Take `CCN1CCCC1CNc1nc(NCCN(C)C)nc(Nc2ccc(OC)c(F)c2)n1` (stereo not drawn) [Compound 68, N^2-[2-(dimethylamino)ethyl]-N^4-[(1-ethyl-2-pyrrolidinyl)methyl]-N^6-(3-fluoro-4-methoxyphenyl)-1,3,5-triazine-2,4,6-triamine]: the activity at 10 µM was 0 to 25% under setting [1] and 25 to 50% under setting [2]. As for `CCN1CCCC1CNc1nc(Nc2ccc(OC)c(F)c2)nc(N2CCN(CC(=O)N3CCCC3)CC2)n1` (stereo not drawn) [Compound 69, N^2-[(1-ethyl-2-pyrrolidinyl)methyl]-N^4-(3-fluoro-4-methoxyphenyl)-N^6-{4-[2-oxo-2-(1-pyrrolidinyl)ethyl]-1-piperazinyl}-1,3,5-triazine-2,4-diamine], the activity at 10 µM lay within 0 to 25% under setting [1] and 0 to 25% under setting [2]. On to `CCN1CCCC1CNc1nc(NCC2CCCN2CC)nc(Nc2ccc(OC)c(F)c2)n1` (stereo not drawn) [Compound 70, N^2,N^4-bis[(1-ethyl-2-pyrrolidinyl)methyl]-N^6-(3-fluoro-4-methoxyphenyl)-1,3,5-triazine-2,4,6-triamine], for which the activity at 10 µM was in the range of 0 to 25% under setting [1] and 25 to 50% under setting [2].

In the case of `CCN1CCCC1CNc1nc(NCCN2CCCCC2)nc(Nc2ccc(OC)c(F)c2)n1` (stereo not drawn) [Compound 71, N^2-[(1-ethyl-2-pyrrolidinyl)methyl]-N^4-(3-fluoro-4-methoxyphenyl)-N^6-[2-(1-piperidinyl)ethyl]-1,3,5-triazine-2,4,6-triamine], the activity at 10 µM reads like this: under setting [1], 0 to 25%; under setting [2], 25 to 50%. As for `CCN1CCCC1CNc1nc(Nc2ccc(OC)c(F)c2)nc(N2CCN(Cc3ccc4c(c3)OCO4)CC2)n1` (stereo not drawn) [Compound 72, N^6-[4-(1,3-benzodioxol-5-ylmethyl)-1-piperazinyl]-N^2-[(1-ethyl-2-pyrrolidinyl)methyl]-N^4-(3-fluoro-4-methoxyphenyl)-1,3,5-triazine-2,4-diamine], the activity at 10 µM reads like this: under setting [1], 0 to 25%; under setting [2], 25 to 50%. `CCN1CCCC1CNc1nc(Nc2ccc(OC)c(F)c2)nc(N2CCN(c3ccccn3)CC2)n1` (stereo not drawn) [Compound 73, N^2-[(1-ethyl-2-pyrrolidinyl)methyl]-N^4-(3-fluoro-4-methoxyphenyl)-N^6-[4-(2-pyridinyl)-1-piperazinyl]-1,3,5-triazine-2,4-diamine]: the activity at 10 µM reads like this: under setting [1], 0 to 25%; under setting [2], 0 to 25%. As to `CCN1CCCC1CNc1nc(NCCCN2CCCC2=O)nc(Nc2ccc(OC)c(F)c2)n1` (stereo not drawn) [Compound 74, 1-[3-({4-{[(1-ethyl-2-pyrrolidinyl)methyl]amino}-6-[(3-fluoro-4-methoxyphenyl)amino]-1,3,5-triazin-2-yl}amino)propyl]-2-pyrrolidinone], the activity at 10 µM under setting [2] fell in the range of 25 to 50%. Regarding `CCN1CCCC1CNc1nc(NCCCn2ccnc2)nc(Nc2ccc(OC)c(F)c2)n1` (stereo not drawn) [Compound 75, N^2-[(1-ethyl-2-pyrrolidinyl)methyl]-N^4-(3-fluoro-4-methoxyphenyl)-N^6-[3-(1H-imidazol-1-yl)propyl]-1,3,5-triazine-2,4,6-triamine], the activity at 10 µM lay within 25 to 50% under setting [1] and 25 to 50% under setting [2]. For `CCNc1nc(Nc2ccc(OC)c(F)c2)nc(NC2CCCCCC2)n1` [Compound 76, N^2-cycloheptyl-N^4-ethyl-N^6-(3-fluoro-4-methoxyphenyl)-1,3,5-triazine-2,4,6-triamine], under setting [1], the activity at 10 µM fell in the range of 0 to 25%.
